This is an account of results in patent publication US9643960B2, “Procaspase activating compounds” (The Board of Trustees of the University of Illinois, priority 2009, dated 2017).

Data set [1] deals with U937 human lymphoma cells. Description: Cell death assay in U937 cells (sulforhodamine B, 72 h). It is filed as cell-based. The protocol:
To each well was added 2 μL of 100× compound stock solutions in DMSO at varying concentrations so that the cells were treated with concentrations between 0 μM and 100 μM compound. Each concentration was tested in quintuplicate. In each plate 5 wells received 10 μM etoposide as a positive control and 5 wells received 2 μL of DMSO as a negative control. […] 1 Specifically, to each well of the plate was added 50 μL of an 80% (w/v) solution of TCA in H2O and the plates were allowed to rest at 4° C. overnight. The plates were then washed gently with a steam of H2O five times to remove the excess TCA and precipitated serum proteins. […] After staining, the wells were gently washed 5 times with 100 μL of 1% (v/v) acetic acid to remove the unbound dye. The plates were then allowed to air dry. […] The OD was then read at 510 nm in a Molecular Dynamics plate reader and the percent cell death calculated and normalized to the positive control (100% cell death) and the negative control (0% cell death). The percent cell death was averaged for each compound concentration and plotted as a function of compound concentration. The data were fit to a logistical dose response curve using Table curve 2D and the IC50 value was calculated. The experiment was repeated three times and the average of the calculated IC50 values was reported. The standard error of the mean (SEM) was determined and reported for the triplicate experiments.
U-937 cells grow in culture as a suspension.

Data set [2] in a line: EGTA fluorescence titration assay (zinc binding). Conditions: read-out: Zinc Binding (KD) nM.
Data set [3] concerns the target T1, caspase-3 (Homo sapiens, UniProt P42574).
T1 construct: Active caspase-3 is a homodimer of heterodimers and is produced by proteolysis of procaspase-3; 6xHis (C); made in house; host or cells: Escherichia coli BL21(DE3), plasmid pHC332
T1 sequence (P42574 29-175 limits assumed): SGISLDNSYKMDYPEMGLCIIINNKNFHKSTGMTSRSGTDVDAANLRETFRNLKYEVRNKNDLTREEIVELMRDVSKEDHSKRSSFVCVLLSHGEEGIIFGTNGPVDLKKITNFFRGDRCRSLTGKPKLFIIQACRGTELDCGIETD
T1 sequence (P42574 176-277 limits assumed): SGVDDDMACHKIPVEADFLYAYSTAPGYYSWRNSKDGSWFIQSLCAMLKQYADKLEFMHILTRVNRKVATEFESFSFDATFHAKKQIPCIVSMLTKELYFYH
In words: Caspase-3 activity assay (relief of zinc mediated inhibition). Format: biochemical. Conditions: for activation at 10 µM: 10 μM compound, 2.5 μM zinc. Here is the method:
Caspase-3 Activity Assays—Zinc-free stocks (2×) of caspase-3 (1 μM) were prepared in Caspase Activity Buffer. Compound stock solutions were made (2×) at various concentrations from 200 μM to 200 nM in Caspase Activity Buffer. […] The plates were incubated at room temperature for 30 minutes. […] The data for each compound concentration (4 wells) was averaged and the percent activity was plotted as a function of compound concentration. The data was analyzed using Table Curve 2D and fitted to a logistical dose-response curve. […] The percent activity at 10 μM was determined for each compound and reported as an average of the three replicate experiments with the corresponding SEM.

Data set [4] has as its system SK-MEL-5 cells. Description: Live cell confocal imaging, colocalization with caspase-3/-7 activity. It is filed as cell-based, human. As to conditions: 25 μM with FAM-DEVD-fmk. The protocol: Live Cell Imaging—SK-Mel-5 cells were grown on the bottom of no. 1 borosilicate growth chambers (Nunc) to a confluency of […]. Cells were then treated with DMSO, 25 μM FAM-DEVD-fmk in DMSO, 25 μM AF350-PAC-1 in DMSO, or both 25 μM FAM-DEVD-fmk and 25 μM AF350-PAC-1 concurrently for 1 hour at 37° C. and 5% CO2. Cells were then washed 5 times with RPMI 1640 growth media lacking phenol red. The cells were then allowed to further incubate at 37° C. for 2 hours before imaging. For cells stained with SYBR green for nuclear staining, a 1:100,000 dilution of SYBR green in media was added immediately prior to imaging. Cells were imaged on a Leica SP2 Multiphoton Confocal microscope.

Data set [5] in a line: Solubility in β-cyclodextran. It is filed as physicochemical.
The nature of data set [6]: Pharmacokinetics of S-PAC-1 i.p. in mice. It is filed as in vivo, mouse. As to conditions: C57/BL6 mice, 125 mg/kg i.p. From the text:
Mice were sacrificed and blood drawn at varying time points after administration. Blood samples were centrifuged and the serum was collected and analyzed by liquid chromatography to determine drug concentration.

The nature of data set [7]: Pharmacokinetics of S-PAC-1 in lymphoma bearing dogs. Format: in vivo, dog. As to conditions: continuous infusion.
Source text: In addition, blood was collected from all pet dogs at each scheduled follow up visit to characterize hematologic and non-hematologic toxicity. Between administrations, patients were monitored by pet owners for gastrointestinal toxicity observational scores adhering the Veterinary Co-operative oncology group common terminology and criteria for adverse events (VCOG_CTCAE) (44).
Data set [8] addresses T2, procaspase-3(D9A/D28A/D175A) mutant (Homo sapiens, UniProt P42574, D175A/D28A/D9A).
T2 construct: 6xHis (C); made in house; host or cells: Escherichia coli BL21(DE3) (printed for procaspase-3 in general, not for the mutant by name)
T2 sequence (P42574 1-277 D9A/D28A/D175A): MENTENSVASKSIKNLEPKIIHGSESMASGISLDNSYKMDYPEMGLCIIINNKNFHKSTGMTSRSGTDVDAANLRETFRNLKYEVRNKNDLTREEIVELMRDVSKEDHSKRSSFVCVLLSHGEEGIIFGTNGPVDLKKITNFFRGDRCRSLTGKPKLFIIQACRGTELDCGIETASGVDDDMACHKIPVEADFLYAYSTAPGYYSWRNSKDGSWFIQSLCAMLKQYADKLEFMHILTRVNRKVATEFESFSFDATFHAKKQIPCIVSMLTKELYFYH
In words: Procaspase-3 D3A mutant activity in the presence of zinc. Format: biochemical. Conditions: 10 μM zinc, S-PAC-1 added, monitored at 15 minute intervals. The source says:
Zinc ions are known to inhibit procaspase-3. […] The effect of a range of concentrations of zinc on caspase-3 and procaspase-3 enzymatic activity was examined. All buffers were first treated with Chelex® resin to remove any trace metal contaminants. […] To ensure that the activity of the proenzyme was being monitored, a proteolytically uncleavable mutant of procaspase-3 (in which the three aspartic acid cleavage site residues are mutated to alanine (D9A/D28A/D175A)) was used (24,32).

A short description of data set [9]: Continuous-rate infusion pharmacokinetics in healthy research dogs. Format: in vivo. As to conditions: hound, dog, plasma, continuous intravenous infusion, read-out: steady state plasma concentration. Here is the method: Each dog received an initial loading dose via i.v. infusion over the course of 10 minutes followed by a maintenance dosage delivered by an infusion pump for an additional 24 hours.

Data set [10] deals with mice. Conditions: cited from earlier work.
Where [11] appears, read: Homo sapiens, U-937, 72 h, 72 h exposure, sulforhodamine B assay, read-out: U937 (IC50 μM).
The mark [12] stands for this setting: Homo sapiens, U-937, 72 h, read-out: U937 (IC50 μM), 72 h exposure, sulforhodamine B assay.

Read-outs that look alike come from different tables or passages of the source.

Take `C=CCc1cccc(/C=N/NC(=O)CN2CCN(Cc3cccc(Cn4cc(CNC(=O)Cc5c(C)c6cc(S(=O)(=O)O)c(N)cc6oc5=O)nn4)c3)CC2)c1O` [AF-PAC-1]: the IC50 in [1] (setting [11]) was determined as 14.8 µM. For the same compound, the Kd in data set [2] is 61 nM. In addition, the activation at 10 µM in [3] worked out at 6.3%. Further, in [3] (50 μM compound), the activation at 50 µM was 20%. Further, in data set [4], the “colocalization with sites of caspase-3/-7 enzymatic activity” value is “good colocalization”.

With `C=CCc1cc(/C=N/NC(=O)CN2CCN(Cc3ccccc3)CC2)c(O)c(CC=C)c1` [PAC-1-I-10], the concentration for half-maximal inhibition (IC50) in data set [1] (setting [12]) was 1.8 ± 0.4 µM; in [1] (read-out: U937 (IC50 μM), 72 h exposure, sulforhodamine B assay), 1.6 ± 0.4 µM.

For `C=CCc1cccc(/C=N/NC(=O)CN2CCN(Cc3ccccn3)CC2)c1O` [PAC-1-II-1], the IC50 in data set [1] (setting [11]) amounted to 9.5 ± 1.8 µM. For the same compound, the Kd in data set [2] was 76 nM. This compound also came in with an activation at 10 µM in [3] of 48 ± 3%.

As to `C=CCc1cccc(/C=N/NC(=O)CN2CCN(Cc3ccc(F)cc3)CC2)c1O` [PAC-1-II-4], the IC50 in data set [1] (setting [11]) came out at 2 ± 0.2 µM. Besides, the dissociation constant Kd in [2] amounted to 96 nM. In data set [3], this compound registered an activation at 10 µM of 24.2 ± 1.7%.

As for `C=CCc1cccc(/C=N/NC(=O)CN2CCN(Cc3cc(OC)ccc3OC)CC2)c1O` [PAC-1-II-5], the 50% inhibitory concentration (IC50) in data set [1] (setting [11]) is 1 ± 0.1 µM. Further, the “Solubility in β-Cyclodextran (mg β-CD/μmol Compound)” value (“Solubility in β-Cyclodextran” below) in [5] is reported as 15.2 mg β-CD/μmol Compound. The Kd in data set [2] is 36 nM. Besides, in data set [3], the activation at 10 µM is 31 ± 3.6%.

With `C=CCc1cccc(/C=N/NC(=O)CN2CCN(Cc3ccc(OC)cc3)CC2)c1O` [PAC-1-II-6], the IC50 in [1] (setting [11]) amounted to 2.7 ± 0.8 µM. Besides, the “Solubility in β-Cyclodextran” value in data set [5] is 7.1 mg β-CD/μmol Compound. The Kd in [2] was 41 nM. This compound also displayed an activation at 10 µM in [3] of 24 ± 3.4%.

Regarding `C=CCc1cccc(/C=N/NC(=O)CN2CCN(Cc3cccc([N+](=O)[O-])c3)CC2)c1O` [PAC-1-II-7], in data set [1] (setting [11]), the IC50 worked out at 4.6 ± 1 µM. Besides, the “Solubility in β-Cyclodextran” value in data set [5] was found to be 4.0 mg β-CD/μmol Compound.

With `C=CCc1cccc(/C=N/NC(=O)CN2CCN(Cc3cccc(C(=O)O)c3)CC2)c1O` [PAC-1-II-8], the IC50 in data set [1] (setting [11]) is 2.3 µM. Moreover, the “Solubility in β-Cyclodextran” value in data set [5] is 5.6 mg β-CD/μmol Compound.

On to `COc1ccc(OC)c(CN2CCN(CC(=O)N/N=C/c3ccccc3O)CC2)c1` [PAC-1-III-1], for which the IC50 in data set [1] (setting [12]) is 12 ± 2 µM.

`COc1cccc(/C=N/NC(=O)CN2CCN(Cc3cc(OC)c(OC)c(OC)c3)CC2)c1O` [PAC-1-III-2]: in data set [1] (setting [11]), the IC50 came out at 27 ± 9.4 µM.

For the compound `COc1cc(O)c(/C=N/NC(=O)CN2CCN(Cc3cc(OC)c(OC)c(OC)c3)CC2)c(OC)c1` [PAC-1-III-3], the IC50 in [1] (setting [11]) was 38 ± 6.2 µM.

As to `COc1ccc(OC)c(CN2CCN(CC(=O)N/N=C/c3c(O)cc(OC)cc3OC)CC2)c1` [PAC-1-III-4], the IC50 in data set [1] (setting [11]) is 17.5 µM.

For `COc1cccc(/C=N/NC(=O)CN2CCN(Cc3ccccc3CS(=O)(=O)c3ccccc3)CC2)c1O` [PAC-1-III-5], in data set [1] (setting [11]), the IC50 came out at 8.4 ± 1.6 µM.

`COc1cc(O)c(/C=N/NC(=O)CN2CCN(Cc3ccccc3CS(=O)(=O)c3ccccc3)CC2)c(OC)c1` [PAC-1-III-6]: in [1] (setting [11]), the IC50 is 5.5 ± 1.5 µM.

Take `C=CCc1cccc(/C=N/NC(=O)CN2CCC(Cc3ccccc3)CC2)c1O` [PAC-1-IV-3]: the IC50 in [1] (setting [11]) amounted to 2.7 ± 1.1 µM. The Kd in data set [2] stood at 50 nM. The activation at 10 µM in data set [3] came out at 36 ± 3%.

Turning to `O=C(CN1CCN(Cc2ccccc2)CC1)NCCc1ccccc1O` [PAC-1-IV-6], the IC50 in data set [1] (setting [11]) is above 100 µM. In addition, the activation at 10 µM in [3] is 4.1 ± 1%.

`O=C(CN1CCN(Cc2ccccc2)CC1)NCc1ccccc1O` [PAC-1-IV-7]: the half-maximal inhibitory concentration (IC50) in [1] (setting [11]) is above 100 µM. This compound also yielded an activation at 10 µM in data set [3] of 4.4 ± 0.9%.

Take `C=CCc1cccc(/C=N/NC(=O)CN2CCN(Cc3ccc(S(N)(=O)=O)cc3)CC2)c1O` [S-PAC-1, (E)-4-((4-(2-(2-(3-allyl-2-hydroxybenzylidene)hydrazinyl)-2-oxoethyl)piperazin-1-yl)methyl)benzenesulfonamide]: in [6], the “S-PAC-1 in the blood at 4 hours post injection” value is “no S-PAC-1 remaining in the blood”. In addition, in data set [5], the “Solubility in β-Cyclodextran” value amounted to 3.5 mg β-CD/μmol Compound. The “time to steady state from beginning of infusion” value in data set [7] was at most 6 h. In addition, the “enzymatic activity of uncleavable procaspase-3 (D3A)” value in data set [8] was “rapidly (within 5 minutes) enhances the enzymatic activity of the proenzyme”. Moreover, the concentration at 24 h in [9] was around 15 µM.

Regarding `c1ccc(CN(CCN(Cc2ccccn2)Cc2ccccn2)Cc2ccccn2)nc1` [TPEN, N,N,N′,N′-tetrakis (2-pyridylmethyl)ethylenediamine], the Neurotoxicity entry in data set [10] is “severe neurotoxicity in mice at low concentrations and rapid death at higher concentrations”.

With `C=CCc1cccc(/C=N/NC(=O)CN2CCN(Cc3cccc(Cn4cc(CNC(=O)Cc5c(C)c6cc(S(=O)(=O)O)c(N)cc6oc5=O)nn4)c3)CC2)c1O` [drawing 79], the IC50 in [1] (72 h exposure, sulforhodamine B assay, read-out: U937 (IC50 μM)) worked out at 10.7 µM.

The term IC50 denotes the concentration that inhibits the measured activity by half. One may read the Kd as the free concentration of one partner at which half of the binding sites on the other are occupied at equilibrium, for simple one-to-one binding.
